Experimental data from patent US8575352B2, “Benzyl sulfonamide derivatives useful as MOGAT-2 inhibitors” (Eli Lilly and Company, priority 2012, dated 2013).
Where a name gives a salt, the structure may show the parent alone.

Tests used:
[1] = biological target: T1, human MOGAT-2 (Homo sapiens, UniProt Q3SYC2); test: Inhibitory Activity in MOGAT-2 Cell Assay (Caco-2 cells stably transfected with human MOGAT-2, HDG substrate, LC-MS); format: cell-based; design: expressed in transfected cells; conditions: Caco-2 cells expressing human MOGAT-2, HDG/DOPC, 4 hours; read-out: IC50 nM (Std Dev., n*)
Description: The inhibitory activity of compounds against human MOGAT-2 in a cell environment is evaluated in this assay. Caco-2 is a human colon carcinoma cell line and is often used as a model for intestinal epithelial cells. […] A MAG analogue, 2-O-Hexadecylglycerol (HDG), is utilized to detect cellular MOGAT-2 activity, because HDG is not hydrolyzed and the resulting product is readily monitored by mass spectrometry. The substrate is delivered to cells using as a mixture with DOPC in the form of sonicated vesicles.
Seed the Caco2 cells onto 100 mm dishes to be 80% confluent after 24 hours in complete media (3/1 DMEM: F12+10% FBS+20 mM HEPES+gentamicin). Transfect the cells with hMOGAT-2 plasmid (MOGAT-2-pcDNA3.1-Hygro) using Lipofectamine 2000 (Invitrogen). After a 6 hour exposure to the transfection mixture, wash the cells three times in PBS and then add media. Incubate the cells for an additional 18 hours incubation, trypsinize the cells and serially dilute them into 100 mm dishes. Add complete media+400 μg/ml hygromycin and incubate until clones appear. Isolate and transfer the clones into 24 well dishes and grow to confluency. Prepare the RNAs from these clones using a Qiagen RNAeasy kit. Perform Taqman analysis using an ABI inventoried assay (HS00228262) on a 7900 Sequence Detection System (ABI). Analyze the lysates from these clones by Western blot analysis using a goat polyclonal antibody (Santa Cruz, SC-32392 to confirm human MOGAT-2 expression of a 38 kD protein corresponding to MOGAT-2.
Mix 2-O-hexadecylglycerol (“HDG”, Biosynth Chemistry & Biology, #H-1806, 562.7 μl of 20 mg/ml) and DOPC (14.3 ml of 20 mg/ml) in chloroform in a glass tube; dry first under N2 gas; and then under reduced pressure for additional 30 minutes. Add 20 ml of buffer (150 mM Tris-Cl pH 7.4, 250 mM sucrose, 1 mM EDTA) to the dried HDG/DOPC mixture while sonicating until the solution becomes clear. Plate the Caco2 cells into a poly-D-lysine coated 96-well plate (the “Cell Plate”) at 37° C., 5% CO2 overnight. Remove the growth media and pretreat the cells with the test compound in DMEMF12 (3:1) media (GIBCO 93-0152DK) containing 2% BSA (Sigma) for 30 minutes. Treat the cells with one test compound in 2% BSA DMEMF12 (3:1) media containing 40 μM of oleic acid and 800 μM of 8.9:91.9 (molar ratio) HDG/DOPC for 4 hours. Trypsinize the cells with 50 μl of trypsin solution and add 50 μl of PBS. Immediately freeze the cells on dry ice and store at −20° C. for LC-MS analysis. Extract the cells with chloroform/methanol as follows: transfer the cells to a 2 ml plate; wash the cell plate with 200 μL methanol and then transfer the methanol wash to the 2 ml plate; wash the cell plate again with 200 μL PBS and transfer the PBS wash to the 2 ml plate. Add chloroform (400 μL) with internal standard (19.52 ng/mL) DAG (15:0, 15:0 (Sigma)), D5-TAG (39.03 ng/mL) CDN (16, 16, 16) to the 2 mL Plate. Turn the sealed 2 mL Plate up and down (10×), then vortex and spin. Remove 400 μL of the lower layer from the 2 mL plate and add to the wells of another plate the “Final Plate”. Add CHCl3:MeOH (400 μL 2:1) to the 2 mL Plate. Again turn the sealed 2 mL Plate up and down (10×), vortex and spin. Remove 220 μL of the lower layer from the 2 mL Plate and add to the Final Plate. Dry the Final Plate and reconstitute with […] of IPA. Seal the Final Plate and shake for 5 min. […]

[2] = system: plasma triglyceride (TAG) secretion from the intestine; test: Dog Oil Bolus Model (plasma triglyceride after olive oil bolus); format: in vivo, dog (male beagles); conditions: olive oil bolus 5 ml/kg; for reduction of 18:1 TAG (plasma TAG 18:1 18:1 18:1 net AUC): 18:1 TAG by LC/MS/MS
From the text: Inhibiting MOGAT-2 found in the small intestine may be useful for treating hypertriglyceridemia caused by excessive fat intake Inhibition of MOGAT-2 disrupts resynthesis of triglycerides, which reduces secretion of triglycerides from the intestine. Therefore, MOGAT-2 inhibition interferes with a specific process that leads to eventual secretion of triglycerides into the intestine for eventual circulation through the body. To assess the ability of one or more of the exemplified compounds to inhibit MOGAT-2 induced TAG secretion into the intestine as measured in the blood system, the following protocol can be followed.
Twenty one male beagles (n=7 per treatment group) are enrolled for each study, each dog selected to have a body weight between 9-13 kg. House the dogs in cages with a standard light cycle (12 hours light and 12 hours dark); at room temperature: 72±8° F.; and at 30%-70% relative humidity. Fast the dogs for 16 hours prior to the start of the study, then dose the fasted dogs with vehicle (1% HEC, 0.25%, Tween 80, Antifoam) or one of the test compounds in that vehicle. Bleed the dogs one hour after dosing, (0.5 ml from the jugular vein) for a time 0 sample. Dose the dogs with olive oil (Sigma Catalog#: O-1514, 5 ml/kg) immediately after collection of the time 0 sample. Collect samples into an EDTA tube on ice at 1.5, 2, 3, 5, 7, and 9 hrs post compound/vehicle dosing. Centrifuge the samples at […] for 15 min and analyze (Roche Cat no. 1877771) for plasma total triglyceride using a Roche Hitachi 917. For plasma TAG 18.1—18.1—18.1 measurement, extract the samples and perform LC/MS/MS analysis similarly to that described above in MOGAT-2 Cell Assay using 10 μL of plasma/.
The analyte is the [M+NH4]+ ion of TAG 18:1 18:1 18:1, which has a mass of 902.8 m/z; the internal standard is D5 TAG 16:0 16:0 16:0, which has a mass of 829.8 m/z. Report the ratio of the 603.5 m/z daughter ion of 902.8 m/z (TAG 18:1 18:1 18:1) and the 556.5 m/z daughter ion of 829.8 m/z (D5 TAG 16:0 16:0 16:0 internal standard) changes in TAG 18:1 18:1 18:1 relative amount. Calculate the net plasma TAG AUC from total TAG AUC minus baseline TAG AUC using Graphpad Prism4: (Net AUCTAG=AUCTAG post oil bolus−AUCTAG at 0 hour). The percent inhibition of plasma triglyceride is calculated as follows: the (oil bolus group mean of net TAG AUC−oil bolus group mean of net TAG AUC with compound treatment/oil bolus group mean of net TAG AUC)*100. The final statistic analysis uses Dunnett's method of One way Anova for comparison with the control. All Net TAG AUC values are transformed to ranked averaged AUC for comparison to limit the variability within the studies.

[3] = biological target: T1, human MOGAT-2; test: MOGAT-2 Inhibitory Assay (in vitro, SF9 cell lysate, 14C-oleoyl-CoA, Microscint extraction); format: biochemical; design: made in house; host or cells: insect SF9 cells (crude lysate supernatant); conditions: SF9 cell extract expressing human MOGAT-2, 90 min, room temperature
Description: The in vitro inhibitory activity of compounds against human MOGAT-2 is evaluated in this assay. MOGAT-2 transfers an oleoyl group to monooleoyl-glycerol (“MAG”) from oleoyl-CoA to form dioleoyl-glycerol (“DAG”) in the intestinal triglyceride resynthesis pathway. The assay takes advantage of Microscint Extraction, which extracts hydrophobic molecules selectively over hydrophilic ones to separate the ^14C-oleoyl-CoA from ^14C-DAG.
Genetically engineered insect SF9 cells express human MOGAT-2. Prepare the cell lysate in 20 mM of NaCl with protease inhibitor (Roche Cat #11873580001). Homogenize the SF9 cells expressing human MOGAT-2 at 15,000 rpm for 20×2 seconds (PT-3100 Polytrone). Centrifuge the homogenate at 1000 g for 10 minutes at 4° C. Collect the supernatant into a separate tube for protein quantification and activity testing. Purify the glycerol monooleate substrate (Spectrum Chemical, CAS#25496-72-4) chromatographically. Prepare the monoacylglyerol (MAG) substrate in phospholipid vescicles (dioleoyl phosphatidylcholine “DOPC”). Prepare the MAG/DOPC vesicles at 20 mM concentration of total lipids (MAG and DOPC). Prepare different molar ratios of MAG to total lipids for either compound screening (8.9%) or compound kinetic studies (2.6-40%). Mix the appropriate amount of purified MAG and DOPC (Avanti Polar Lipids #850375C) in chloroform in a glass tube. […]

T1 sequence (Q3SYC2 whole entry): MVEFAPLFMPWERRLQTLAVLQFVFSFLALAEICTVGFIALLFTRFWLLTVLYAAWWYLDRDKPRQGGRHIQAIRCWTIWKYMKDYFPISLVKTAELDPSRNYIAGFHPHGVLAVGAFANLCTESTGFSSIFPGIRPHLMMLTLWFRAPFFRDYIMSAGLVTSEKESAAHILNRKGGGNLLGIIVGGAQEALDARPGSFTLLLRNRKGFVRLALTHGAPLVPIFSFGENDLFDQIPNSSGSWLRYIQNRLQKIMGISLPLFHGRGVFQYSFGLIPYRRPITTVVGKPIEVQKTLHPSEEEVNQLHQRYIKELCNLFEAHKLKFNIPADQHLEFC

SMILES	IC50 [1] [nM]	IC50 [3] [µM]	reduction of 18:1 TAG (plasma TAG 18:1 18:1 18:1 net AUC) ([2]; 60 mg/kg) [%]	reduction of TAG secretion/absorption (percent inhibition of plasma total triglyceride net AUC) ([2]; 60 mg/kg, total TAG) [%]	reduction of 18:1 TAG (plasma TAG 18:1 18:1 18:1 net AUC) ([2]; 30 mg/kg) [%]	reduction of TAG secretion (percent inhibition of plasma total triglyceride net AUC) ([2]; 30 mg/kg, total TAG) [%]
CS(=O)(=O)N[C@@H](c1ccc(CNCCOc2ccc(F)cn2)cc1)C(F)(F)F [Example 17, N-[(1S)-2,2,2-Trifluoro-1-{4-[({2-[(5-fluoropyridin-2-yl)oxy]ethyl}amino)-methyl]phenyl}ethyl]-methanesulfonamide hydrochloride]	45.5					
C[C@H](CNCc1ccc([C@H](NS(C)(=O)=O)C(F)(F)F)cc1)Oc1ccc(F)cn1.Cl [Example 36, N-[(1S)-2,2,2-Trifluoro-1-{4-[({(2r)-2-[(5-fluoropyridin-2-yl)oxy]propyl}amino)methyl]phenyl}ethyl]-methanesulfonamide hydrochloride]	36.1		43	38		
COC[C@H](CNCc1ccc([C@H](NS(C)(=O)=O)C(F)(F)F)cc1)Oc1ccccn1 [Example 5, N-{(1S)-2,2,2-Trifluoro-1-[4-({[(2S)-3-methoxy-2-(pyridin-2-yloxy)propyl]amino}-methyl)phenyl]ethyl}-methanesulfonamide hydrochloride (1:1)]	44.6					

Molecules with a lower IC50 [1], results first:

IC50 [1] [nM]	IC50 [3] [µM]	SMILES	reduction of 18:1 TAG (plasma TAG 18:1 18:1 18:1 net AUC) ([2]; 60 mg/kg) [%]	reduction of TAG secretion/absorption (percent inhibition of plasma total triglyceride net AUC) ([2]; 60 mg/kg, total TAG) [%]	reduction of 18:1 TAG (plasma TAG 18:1 18:1 18:1 net AUC) ([2]; 30 mg/kg) [%]	reduction of TAG secretion (percent inhibition of plasma total triglyceride net AUC) ([2]; 30 mg/kg, total TAG) [%]
30.6	0.002	COC[C@H](CNCc1ccc([C@H](NS(C)(=O)=O)C(F)(F)F)cc1)Oc1ccc(F)cn1.Cl [Example 1, N-[(1S)-2,2,2-Trifluoro-1-{4-[({(2S)-2-[(5-fluoropyridin-2-yl)oxy]-3-methoxypropyl}amino)methyl]phenyl}ethyl]methanesulfonamide hydrochloride]	76	77	64	61
14.4		C[C@H](CNCc1ccc([C@H](NS(C)(=O)=O)C(F)(F)F)cc1)Oc1ccccn1 [Example 3, N-{(1S)-2,2,2-Trifluoro-1-[4-({[(2R)-2-(pyridin-2-yloxy)propyl]amino}-methyl)phenyl]ethyl}-methanesulfonamide hydrochloride]				
